The source of these data is publication PMC7018514 (eLife, 2020).

Assay [1] deals with T1, human IMPDH2 (Homo sapiens, UniProt P12268, Y12A).
T1 construct: full-length hIMPDH2, non-assembling mutant
Briefly: NADH absorbance ([…] nm) activity assay with GTP dose-response; […] inhibited at […] GTP. Type of assay: biochemical.

The target of assay [2] is T2, human IMPDH2 (Homo sapiens, UniProt P12268).
T2 construct: full-length hIMPDH2 (SUMO tag removed)
The assay is described as follows: cryo-EM structures ([…] Å fully compressed filament segment; […] Å free octamer), plus GTP inhibition kinetics of purified enzyme. Type of assay: biochemical.

For assay [3], the target named is T2, human IMPDH2. Briefly: cryo-EM structure ([…] Å filament assembly interface); NAD+ saturation kinetics. It counts as binding.

T2 sequence (P12268 2-514): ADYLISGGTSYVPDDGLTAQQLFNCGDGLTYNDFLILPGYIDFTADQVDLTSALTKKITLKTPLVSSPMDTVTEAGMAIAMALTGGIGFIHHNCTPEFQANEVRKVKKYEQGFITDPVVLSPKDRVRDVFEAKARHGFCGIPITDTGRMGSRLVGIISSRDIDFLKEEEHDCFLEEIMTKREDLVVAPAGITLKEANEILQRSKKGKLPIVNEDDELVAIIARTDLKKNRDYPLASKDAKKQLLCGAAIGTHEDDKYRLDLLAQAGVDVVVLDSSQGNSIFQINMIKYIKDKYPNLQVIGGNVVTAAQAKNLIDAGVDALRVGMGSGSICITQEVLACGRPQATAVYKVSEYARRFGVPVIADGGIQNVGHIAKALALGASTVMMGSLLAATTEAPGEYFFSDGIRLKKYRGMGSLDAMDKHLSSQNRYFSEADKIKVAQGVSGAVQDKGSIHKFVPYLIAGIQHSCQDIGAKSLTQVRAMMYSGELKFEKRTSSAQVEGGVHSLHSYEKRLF
T1 sequence (P12268 2-514 Y12A): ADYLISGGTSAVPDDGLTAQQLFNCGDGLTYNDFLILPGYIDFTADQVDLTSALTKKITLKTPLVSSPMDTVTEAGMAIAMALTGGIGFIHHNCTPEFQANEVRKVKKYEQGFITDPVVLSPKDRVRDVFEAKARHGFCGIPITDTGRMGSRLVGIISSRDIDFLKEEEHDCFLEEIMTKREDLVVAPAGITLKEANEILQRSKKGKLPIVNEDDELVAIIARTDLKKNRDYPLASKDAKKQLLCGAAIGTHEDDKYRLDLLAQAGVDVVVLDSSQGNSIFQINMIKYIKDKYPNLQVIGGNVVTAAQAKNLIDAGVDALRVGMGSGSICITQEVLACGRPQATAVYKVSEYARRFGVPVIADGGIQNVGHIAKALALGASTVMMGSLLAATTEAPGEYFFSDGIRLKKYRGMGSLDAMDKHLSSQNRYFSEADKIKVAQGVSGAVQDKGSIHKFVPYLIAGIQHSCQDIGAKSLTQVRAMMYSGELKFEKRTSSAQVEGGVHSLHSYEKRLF

On to `Nc1nc2c(ncn2[C@@H]2O[C@H](COP(=O)(O)OP(=O)(O)OP(=O)(O)O)[C@@H](O)[C@H]2O)c(=O)[nH]1` [GTP], for which the figures for the half-maximal inhibitory concentration (IC50) on human IMPDH2 [1] and at human IMPDH2 [2] were below 2000 µM and above 2000 µM, respectively. As for `NC(=O)c1ccc[n+]([C@@H]2O[C@H](COP(=O)([O-])OP(=O)(O)OC[C@H]3O[C@@H](n4cnc5c(N)ncnc54)[C@H](O)[C@@H]3O)[C@@H](O)[C@H]2O)c1` [NAD+], on human IMPDH2 [3], the “cryo-EM structure (3.0 Å filament assembly interface); NAD+ saturation kinetics” value was “There is strong density in the both the IMP and NAD^+ binding sites”.

Usually IC50 stands for the point on the concentration scale where inhibition reaches its midpoint.
